Measurements as given in article PMC6972948 (Scientific Reports, 2020).

System: A/duck/Ukraine/1/1963
Format: cell-based, avian influenza A virus

## CCC(CC)O[C@@H]1C=C(C(=O)O)C[C@H](N)[C@H]1NC(C)=O [Oseltamivir carboxylate, oseltamivir carboxylate]
  plaque formation: complete abrogation of plaque formation
Conc. 1 μM
  Plaque dia.: 0 mm
  Plaque qty.: 0
